Test results as given in patent US20060020029A1, “Pharmaceutical compositions from ethnobotanicals” (priority 2004, published 2006).
≈ marks a conversion by molar mass, not a printed value. Where “and” joins values, the source holds several entries; their conditions need not be identical. Identical values can stand only once.

What was measured:
[1] = test system: RSV (Long strain); experiment: CPE assay, RSV-Long in Hep-2 cells; assay type: cell-based, respiratory syncytial virus; conditions: Hep-2 cells, CPE assay; for EC50: μM using the estimated FW-516
[2] = test system: Influenza A-Shangdong/09/93 (H3N2); experiment: CPE assay, influenza A specificity; assay type: cell-based, influenza type A
Description: (§1) To determine whether the fractions are specific RSV inhibitors rather than general antiviral agents, the inventors tested them against influenza type A/Shangdong/09/93 (H3N2), herpes simplex type 1 (MacItyre), and herpes simplex type 2 (MS) using the CPE assay system.
(§2) CJ4-16-4 was tested using influenza type A, herpes simplex virus type 1, and herpes simplex virus type 2 using the CPE assay with MDCK or Vero cells.

[3] = test system: Herpes simplex virus type 1 (MacIntyre strain); experiment: CPE assay, HSV-1 specificity; assay type: cell-based
Description: as §1, §2

[4] = test system: RSV-Long; experiment: Time of addition, CPE assay; assay type: cell-based, respiratory syncytial virus; conditions: for EC50, time of addition: Hep-2; for EC50: estimated FW-516
Description: Determine the Time of Addition for EB Fractions. […] This activity is related to the life cycle of the virus and the step in the cycle where the compounds act. In this example, experiments were performed to investigate the effect of the time of addition of EB fractionated products on anti-RSV activity.
Mechanism of action studies were performed as follows. Mechanism of action studies were performed using CJ4-16-4 in a CPE assay with Hep-2 cells.

[5] = test system: RSV-Long (Cotton Rat adapted strain); experiment: CPE assay, RSV-Long cotton rat adapted strain; assay type: cell-based, respiratory syncytial virus
[6] = Stability in DMSO / water (HPLC); assay type: physicochemical
Description: Next, the stability of 3,5-DCQA was evaluated in various concentrations of DMSO. 5.2 mg 3,5-DCQA was dissolved in 0.208 ml DMSO (conc.=25 mg/ml), and then diluted with water as 40% DMSO in water solution, 20% DMSO in water solution, and 10% DMSO in water solution, respectively. All samples were subjected on HPLC in 0 Day, 1 Day, 2 Day and 4 Day, and the Area % of 3,5-DCQA was calculated.
In the presence of water, 3,5-DCQA was converted into 4,5-dicaffeoylquinic acid (4,5-DCQA), as observed using HPLC. HPLC analysis of 3,5-DCQA in DMSO and H2O (conc.=2.5 mg/ml) at 0 day, 2 Day and 4 Day indicated a progressive degradation of 3,5-DCQA. By the forth day in 10% DMSO in H2OP, over 11% of 3,5-DCQA was changed into 4,5-DCQA.

[7] = Stability in increasing concentrations of water (HPLC); assay type: physicochemical; conditions: for Area % of 3,5-DCQA (HPLC): Table 24 (in H2O)
Description: The rate of degradation of 3,5-DCQA was again tested in increasing concentrations of water. 5.4 mg 3,5-DCQA was dissolved in 0.266ml DMSO (conc.=20.3 mg/ml), and then diluted with water to ½, ¼ and ⅛ dilution, respectively. All samples were subjected on HPLC in 0 Day, 1 Day, 2 Day and 4 Day, and Area % of 3,5-DCQA was calculated.

[8] = test system: Hep-2 cells
[9] = test system: Vero cells
[10] = test system: MDCK cells; experiment: Cytotoxicity in MDCK cells
[11] = test system: RSV-A2; experiment: CPE assay, RSV-A2 in Hep-2 cells
Description: The cell line was propagated in MEM supplemented with 10% heat-inactivated fetal bovine serum (FBS) containing 100 μg/ml of antibiotics (streptomycin/penicillin). […] The overnight medium (MEM containing 10% FBS) was removed, and wells were rinsed twice with 1× phosphate buffer saline (PBS, 200 μl) before adding 10×TCID50 of RSV suspension in fresh medium (MEM plus 2% FBS) to each well, except for cell only wells. […] CellTiter 96 Aqueous Non-Radioactive Cell Proliferation Assay (Promega) was used to monitor the antiviral activity following the manufacturer's instruction. After incubation, the cells were rinsed twice with 200 μl of 1×PBS prior to the addition of 100 μl of fresh medium (MEM plus 10% FBS). […] The extent of cell viability was measured at 490 nm using an ELISA reader, and the absorbance was used to calculate percent inhibition. Antiviral activity of each EB fraction or ribavirin is expressed as IC50, which represents the concentration of the test substance required to reduce the virus infection (as measured by the destruction of the host cells) by 50%.
Hep-2 cells were used in the CPE assay to determine anti-RSV properties.

[12] = test system: RSV A2; experiment: Cotton rat RSV infection model, pulmonary titer; conditions: for RSV Pulmonary Titer Mean ± SD / RSV Pulmonary Titer in individual CR (A-D): harvest day 4
Description: All groups consisted of four randomly selected cotton rats. All test materials were administered intraperitoneally with once daily dosing. The placebo group was administered distilled water at volumes and schedules identical to the other groups receiving investigational test articles. In general, timing of administration of ribavarin to the ribavarin-treated group paralleled that of the other treatment groups except that initiation of dosing was on Day 1 for Experiments 1 and 2 and Day 0 for Experiment 3. The dose of ribavarin was 90 mg/kg/day in Experiments 1 and 3 and 180 mg/kg/day in Experiment 2. All animals were inoculated intranasally with approximately 100 median cotton rat infectious doses (CRID50) of RSV A2 on Day 0. Experiments were terminated on either Day 3 or 4 post-infection. […] On the day that the experiment was terminated, all CRs were sacrificed using CO2 to asphyxiate the animals. The lungs from the animals were subsequently removed. The lungs of sacrificed animals were removed, rinsed in sterile phosphate-buffered saline (PBS; pH 7.2) and weighed. Each set of lungs was then transpleurally lavaged using 3 ml of 2% FCS-MEM media. The resulting lung fractions were kept on ice until they were assayed for RSV. The lung fractions of animals from each group were tested for the levels of RSV present.

[13] = CPE assay with MDCK or Vero cells
[14] = 12.5 mg/kg/day B.I.D i.p. D0-D3, 50% DMSO
[15] = 25 mg/kg/day B.I.D i.p. D0-D3, 50% DMSO

With `O=C(/C=C/c1ccc(O)c(O)c1)OC1CC(O)(C(=O)O)CC(OC(=O)/C=C/c2ccc(O)c(O)c2)C1O` (centres unmarked) [CJ4-16-4, 3,5-di-O-caffeoylquinic acid] the “EC50, RSV-Long” value [1] was 0.035 µg/mL (≈ 0.0678 µM), the EC50 [1] was 0.068 µM and the EC50 ([1]; listed as 3,5 dicaffeoyl-quinic acid) was roughly 0.068 µM. For the same compound, the EC50 ([1]; listed as IV) was 0.068 µM, the “activity against Influenza A (in words)” value [2] was “inactive” and the “EC50, Influenza A-Shangdong/09/93 (H3N2)” value [2, 13] was greater than 50 µg/mL. The EC50 ([2]; μM using the estimated FW-516) was greater than 100 µM, the “activity against HSV-1 (in words)” value [3] was “inactive” and the “EC50, Herpes simplex virus type 1 (MacIntyre strain)” value [3, 13] was greater than 50 µg/mL. The EC50 ([3]; μM using the estimated FW-516) was greater than 100 µM, the “EC50, time of addition” value ([4]; 0-Hr-Post-infection) was 0.051 µg/mL and the EC50 ([4]; 0-Hr-Post-infection) was 99 nM. The “EC50, time of addition” value ([4]; 2-Hr-Post-infection) was 0.036 µg/mL, the EC50 ([4]; 2-Hr-Post-infection) was 70 nM and the “EC50, time of addition” value ([4]; 4-Hr-Post-infection) was 0.039 µg/mL. For the same compound, the EC50 ([4]; 4-Hr-Post-infection) was 76 nM, the “EC50, time of addition” value ([4]; 6-Hr-Post-infection) was 0.043 µg/mL and the EC50 ([4]; 6-Hr-Post-infection) was 83 nM. The “EC50, time of addition” value ([4]; 8-Hr-Post-infection) was 0.039 µg/mL, the EC50 ([4]; 8-Hr-Post-infection) was 76 nM and the “EC50, time of addition” value ([4]; 24-Hr-Post-infection) was 0.069 µg/mL. For the same compound, the EC50 ([4]; 24-Hr-Post-infection) was 130 nM, the “EC50, RSV-Long (Cotton Rat adapted strain)” value ([5]; Hep-2 cells, CPE assay) was 1.4 µg/mL (≈ 2.71 µM) and the EC50 ([5]; μM using the estimated FW-516) was 2.7 µM. The “3,5-DCQA changed into 4,5-DCQA” value ([6]; 10% DMSO in H2O (2.5 mg/ml), fourth day) was “over 11%”, the “Area % of 3,5-DCQA (HPLC)” value ([6]; 10% DMSO in H2O, 0 Day) was 97.25 Area % and the “Area % of 3,5-DCQA (HPLC)” value ([6]; 10% DMSO in H2O, 1 Day) was 93.60 Area %. The “Area % of 3,5-DCQA (HPLC)” value ([6]; 10% DMSO in H2O, 2 Day) was 89.50 Area %, the “Area % of 3,5-DCQA (HPLC)” value ([6]; 10% DMSO in H2O, 4 Day) was 86.01 Area % and the “Area % of 3,5-DCQA (HPLC)” value ([6]; 20% DMSO in H2O, 1 Day) was 94.56 Area %. For the same compound, the “Area % of 3,5-DCQA (HPLC)” value ([6]; 20% DMSO in H2O, 2 Day) was 91.91 Area %, the “Area % of 3,5-DCQA (HPLC)” value ([6]; 20% DMSO in H2O, 4 Day) was 89.08 Area % and the “Area % of 3,5-DCQA (HPLC)” value ([6]; 40% DMSO in H2O, 1 Day) was 96.33 Area %. The “Area % of 3,5-DCQA (HPLC)” value ([6]; 40% DMSO in H2O, 2 Day) was 94.72 Area %, the “Area % of 3,5-DCQA (HPLC)” value ([6]; 40% DMSO in H2O, 4 Day) was 93.90 Area % and the “Area % of 3,5-DCQA (HPLC)” value ([6]; 100% DMSO (25 mg/ml), 0 Day) was 97.28 Area %. The “Area % of 3,5-DCQA (HPLC)” value ([6]; 100% DMSO (25 mg/ml), 1 Day) was 97.34 Area %, the “Area % of 3,5-DCQA (HPLC)” value ([6]; 100% DMSO (25 mg/ml), 2 Day) was 97.15 Area % and the “Area % of 3,5-DCQA (HPLC)” value ([6]; 100% DMSO (25 mg/ml), 4 Day) was 97.09 Area %. The “degradation in 100% DMSO (in words)” value ([6]; 100% DMSO, up to 4 Day) was “No statistically significant degradation”, the “Area % of 3,5-DCQA (HPLC)” value ([7]; Stock (20.3 mg/ml), 0 Day) was 97.05 Area % and the “Area % of 3,5-DCQA (HPLC)” value ([7]; Stock (20.3 mg/ml), 1 Day) was 96.09 Area %. The “Area % of 3,5-DCQA (HPLC)” value ([7]; Stock (20.3 mg/ml), 2 Day) was 93.94 Area %, the “Area % of 3,5-DCQA (HPLC)” value ([7]; Stock (20.3 mg/ml), 4 Day) was 91.90 Area % and the “Area % of 3,5-DCQA (HPLC)” value ([7]; ¼ dilution with water, 1 Day) was 92.79 Area %. The “Area % of 3,5-DCQA (HPLC)” value ([7]; ¼ dilution with water, 2 Day) was 91.06 Area %, the “Area % of 3,5-DCQA (HPLC)” value ([7]; ¼ dilution with water, 4 Day) was 88.14 Area % and the “Area % of 3,5-DCQA (HPLC)” value ([7]; ½ dilution with water, 1 Day) was 94.62 Area %. For the same compound, the “Area % of 3,5-DCQA (HPLC)” value ([7]; ½ dilution with water, 2 Day) was 92.71 Area %, the “Area % of 3,5-DCQA (HPLC)” value ([7]; ½ dilution with water, 4 Day) was 90.20 Area % and the “Area % of 3,5-DCQA (HPLC)” value ([7]; ⅛ dilution with water, 0 Day) was 96.91 Area %. For the same compound, the “Area % of 3,5-DCQA (HPLC)” value ([7]; ⅛ dilution with water, 1 Day) was 92.60 Area %, the “Area % of 3,5-DCQA (HPLC)” value ([7]; ⅛ dilution with water, 2 Day) was 89.02 Area % and the “Area % of 3,5-DCQA (HPLC)” value ([7]; ⅛ dilution with water, 4 Day) was 85.55 Area %. The “3,5-DCQA changed into 4,5-DCQA” value ([7]; fourth day in solution) was “over 11%”, the CC50 [8] was greater than 400000 nM and the “CC50, Hep 2” value [8] was greater than 200 µg/mL. For the same compound, the “cytotoxicity in Hep-2 cells (in words)” value [8] was “no significant cytotoxicity”, the CC50 [9] was greater than 400000 nM and the “CC50, Vero” value [9] was greater than 200 µg/mL. For the same compound, the “CC50, MDCK” value ([10]; isolated compounds) was greater than 200 µg/mL, the CC50 ([10]; read-out: CC50, MDCK, μM using the estimated FW-516) was greater than 400 µM and the “EC50, RSV-A2” value ([11]; Hep-2 cells, CPE assay) was 0.084 µg/mL (≈ 0.163 µM). For the same compound, the EC50 ([11]; read-out: EC50, RSV-A2, μM using the estimated FW-516) was 0.163 µM, the “inhibition of RSV infection in cotton rat model” value ([12]; 12.5 mg/kg/day) was “over one log” and the “RSV Pulmonary Titer Mean ± SD” value [12, 14] was 3.3 ± 0.0 log10/g lung. The “RSV Pulmonary Titer in individual CR (A-D)” value [12, 14] was 3.3 log10/g lung, the Reduction ([12]; 12.5 mg/kg/day B.I.D i.p. D0-D3, vs placebo) was 1.1 Log 10 and the “RSV Pulmonary Titer Mean ± SD” value [12, 15] was 3.2 ± 0.3 log10/g lung. For the same compound, the “RSV Pulmonary Titer in individual CR (A-D)” value [12, 15] was 2.8 log10/g lung and 3.3 log10/g lung (3×) and the Reduction ([12]; 25 mg/kg/day B.I.D i.p. D0-D3, vs placebo) was 1.2 Log 10.
